Results reported in article PMC11222247, “PEGylation renders carnosine resistant to hydrolysis by serum carnosinase and increases renal carnosine levels” (Amino Acids, 2024).
Marks after values point to notes of the source that are not given here.

How the values were obtained:
[1] = Pharmacokinetics in kidney of mice after single intravenous injection (LC-MS/MS); assay type: in vivo, C57BL/6J mice; settings: for AUC: 0 to 240 min sampling; for half-life: 1000 mg/kg i.v. single injection, noncompartmental, naive pooled
Protocol: (§1) Six- to eight-week-old male C57BL/6J (20–25 g) mice were purchased from Sino-British SIPPR/BK Lab Animal Ltd (Shanghai, China). After ad libitum feeding for one week, the mice were randomly divided into three groups: the control group (n = 3, saline treated), the PEG-car treated group (n = 3) and the L-carnosine treated group (n = 3). Hereof, each mouse was respectively injected intravenously (i.v.) with saline, PEG-car (1000 mg/kg) or L-carnosine (1000 mg/kg) through the tail vein. The mice were anaesthetized by the inhalation of isoflurane during the injection. Blood samples were collected in EDTA tubes by cardiac puncture at 0, 5, 15, 30, 60, 120, 240 min after the administration of PEG-car or L-carnosine. Sera were obtained by centrifugation of the blood sample at 6800 g for 6 min at 4 ℃. Right after sacrifice, the mice were perfused by phosphate-buffered saline to remove the remaining blood. The brains and kidneys were carefully isolated thereafter. The tissues were stored at − 80 ℃and the sera were stored at − 20 ℃ untill use.
(§2) PEG-car or L-carnosine levels in serum and tissues were determined by liquid chromatography tandem-mass spectrometry (LC-MS/MS). Warfarin (Sigma-Aldrich, St. Louis, MO, USA) was used as internal standard (IS). The entire procedure for sample and standard preparation was carried out on ice. An aliquot of 20 µL serum or homogenized 40 mg tissue were pipetted into centrifuge tube and then 400 µL methanol was added for protein precipitation. After spiking the IS (40 ng for serum and 4 ng for kidney), the samples were vortexed for 1 min and then centrifuged at 18,000 g for 7 min at 4 ℃. The supernatant was used for the assay. The calibration curves were prepared by spiking the known concentrations of PEG-car or L-carnosine into serum or tissue homogenates obtained from untreated mice.
(§3) The concentrations were measured by a UHPLC system (Shimadzu LC-40D XS, Japan) coupled with electrospray ionization (ESI) and triple quadrupole-ion trap mass spectrometry (AB SCIEX QTRAP® 6500+, Singapore). PEG-car was performed in ACQUITY UPLC BEH C18 column (2.1 mm×50 mm, 1.7 μm, Waters, USA) with a 0.6 mL/min flow rate of mobile phase using gradient elution of ultrapure water (2mM Ammonium acetate (Sinopharm Chemical Reagent Co., Ltd, Shanghai, China) containing 0.1% formic acid, eluent A) and acetonitrile (2mM Ammonium formate (Sinopharm Chemical Reagent Co., Ltd, Shanghai, China) containing 0.1% formic acid, eluent B). The solvent gradient was changed according to the following program: 0–0.01 min 10%B, 0.01–0.6 min 10-90%B, 0.6–1.2 min 90%B, 1.2–1.21 min 90%-10%B, 1.21–1.5 min 10%B. L-carnosine was performed in ACQUITY UPLC BEH Amide column (2.1 mm×50 mm, 1.7 μm, Waters, USA) with a 0.6 mL/min flow rate of mobile phase using gradient elution of ultrapure water (2mM Ammonium acetate containing 0.1% formic acid, eluent A) and acetonitrile (2mM Ammonium formate containing 0.1% formic acid, eluent B). The solvent gradient was as follows: 0–0.01 min 90%B, 0.01–0.6 min 90%-40%B, 0.6–1.2 min 40%B, 1.2–1.21 min 40-90%B, 1.21–1.5 min 90%B. The injection volume was 5 µL. The QTRAP® 6500 + was operated in positive mode, multiple reaction monitoring (MRM) in unit resolution for Q1 and Q3. For detection of PEG-car, three transitions were set with a Q1 mass of 776.4, and Q3 masses of 109.9 (Collision Energy (CE) 119), 126.8 (CE 51), 707.2 (CE 38). For L-carnosine, four transitions were set with a Q1 mass of 227.3, and Q3 masses of 83.1 (CE 53), 110.0(CE 31), 156.2(CE 21), 210.2(CE 16). Pharmacokinetic parameters were calculated by noncompartmental analysis using a sparse sampling and naïve pooled approach (Phoenix WinNonLin 7.0, Certara, Mountain View, CA, USA).

[2] = molecular target: T1, carnosinase-1 (recombinant Human CN-1) (Homo sapiens, UniProt Q96KN2); assay: Enzymatic hydrolysis by carnosinase-1 (histidine release, fluorometric assay); assay type: biochemical; settings: for Fluorescence (proportional to histidine release) on incubation with recombinant CN-1: 1 mM substrate, Tris/HCl 50 mM pH 7.5, 30 °C, 5-80 min, Fig. 3; for Hydrolysis in human serum: as worded in the abstract: human serum
T1 construct: purchased Novoprotein Company, Suzhou, China
T1 sequence (Q96KN2 26-507): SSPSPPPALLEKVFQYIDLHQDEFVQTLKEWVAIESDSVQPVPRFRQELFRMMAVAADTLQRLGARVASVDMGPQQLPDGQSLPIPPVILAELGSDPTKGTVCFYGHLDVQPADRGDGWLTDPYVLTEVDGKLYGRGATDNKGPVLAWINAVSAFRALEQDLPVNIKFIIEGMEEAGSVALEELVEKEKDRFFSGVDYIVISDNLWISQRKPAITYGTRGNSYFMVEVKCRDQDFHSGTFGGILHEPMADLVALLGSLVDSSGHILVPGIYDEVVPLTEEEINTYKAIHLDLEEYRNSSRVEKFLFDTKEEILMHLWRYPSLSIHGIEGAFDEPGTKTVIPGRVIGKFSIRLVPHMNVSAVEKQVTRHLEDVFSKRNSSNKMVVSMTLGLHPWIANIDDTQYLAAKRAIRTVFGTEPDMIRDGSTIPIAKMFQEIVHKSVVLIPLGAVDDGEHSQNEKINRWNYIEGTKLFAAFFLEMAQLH
Protocol: The resistance of the PEG-car to the enzymatic hydrolysis by carnosinase-1 was assayed by a previously designed enzymatic activity test (Lenney et al. [1982]). Briefly, PEG, PEG-car and L-carnosine (1 mM) respectively were incubated in Tris/HCl buffer (50 mM, pH 7.5) at 30 °C with carnosinase-1 (recombinant Human CN-1, Novoprotein Company, Suzhou, China). Aliquots of each sample taken after 5, 10, 20, 30, 40, 60, 80 min, and the enzymatic reaction was stopped by addition of 50 µL of 1% trichloroacetic acid (TCA). After addition of 50 µL of 5 mg/mL o-pthaldialdehyde dissolved in 2 M NaOH and incubation for 30 min at 30 °C, the amount of liberated histidine was quantified by fluorometric assay conducted by a multifunctional enzyme marker reader.

[3] = Pharmacokinetics in serum of mice after single intravenous injection (LC-MS/MS); assay type: in vivo, C57BL/6J mice; settings: for half-life: 1000 mg/kg i.v. single injection, noncompartmental, naive pooled; for AUC: 0 to 240 min sampling
Protocol: as §1, §2, §3

[4] = male, C57BL/6J, mouse, iv, read-out: Half-Life
[5] = male, C57BL/6J, mouse, iv, 1000 mg/kg i.v., at 5 min

half-life [1, 4] [min]	Cmax [1, 5] [ng/g]	clearance ([3]; male, C57BL/6J, mouse, iv, 1000 mg/kg i.v.) [mL/min/kg]	half-life [3, 4] [min]	AUC ([3]; male, C57BL/6J, mouse, iv, 1000 mg/kg i.v., read-out: AUC (converted)) [µg·h/mL]	Cmax [3, 5] [µg/mL]	Vd ([3]; male, C57BL/6J, mouse, iv, 1000 mg/kg i.v., read-out: Vss) [L/kg]	Compound	CL ([1]; 1000 mg/kg i.v.)	Vss ([1]; 1000 mg/kg i.v.)	AUC ([1]; 1000 mg/kg i.v.)	Fluorescence (proportional to histidine release) on incubation with recombinant CN-1 [2]	Hydrolysis in human serum [2]	half-life [1]	Cmax (5 min) ([1]; 1000 mg/kg i.v., at 5 min)	Inhibition of CN-1 activity ([2]; mixture of PEG-car with L-carnosine incubated with recombinant CN-1)	CL ([3]; 1000 mg/kg i.v.) [mL/min/kg]	Vss ([3]; 1000 mg/kg i.v.)	half-life [3] [min]	AUC ([3]; 1000 mg/kg i.v.)	Cmax (5 min) ([3]; 1000 mg/kg i.v., at 5 min) [µg/mL]
105	5.91e+06	15.4	62	1080	2860	0.606	NCCC(=O)N[C@@H](Cc1cnc[nH]1)C(=O)O [L-carnosine, reference compound]	1.59^d g/min/kg	208^e g/kg	518,040^c ng/mg tissue·min	fluorescence increased with time	rapidly hydrolyzed	–	–	–	–	–	–	–	–
–	–	–	–	–	–	–	mPEG-carnosine	3.47^d* g/min/kg	830^e* g/kg	173,340^c* ng/mg tissue·min	approximately six times lower than that of the carnosine sample	highly resistant to hydrolysis	168* min	3899^b* ng/mg tissue	the activity of CN-1 cannot be inhibited by PEG-car	14.84	294* mL/kg	32	67,730 µg/mL·min	2671
